ChEMBL document CHEMBL1126525, “Synthesis and DNA cleaving properties of hybrid molecules containing propargylic sulfones and minor groove binding lexitropsins” (Bioorg Med Chem Lett, 1993)

These compounds were tested on Nucleic Acid (assay: Compound was evaluated for its binding affinity constant to calf thymus DNA). Conditions: Bos taurus.
Assay type: nucleic-acid assay

Question: For `COC(=O)c1cc(NC(=O)c2cc(NC(=O)c3cc(NC(=O)c4cccc5c(S(=O)(=O)CC#CCO)cccc45)cn3C)cn2C)cn1C`, which Binding affinity is on record?
Answer: 720000 M⁻¹

Question: For `O=S(=O)(CC#CCO)c1cccc2ccccc12`, which Binding affinity is on record?
Answer: 46000 M⁻¹

Question: With `COC(=O)c1cc(NC(=O)c2cc(NC(=O)c3cc(NC(=O)c4cc(S(=O)(=O)CC#CCO)cc5ccccc45)cn3C)cn2C)cn1C` as the compound, how does the Binding affinity read?
Answer: 89000 M⁻¹
